Assay results as given in ChEMBL document CHEMBL2010637, “Synthesis and evaluation of triazolones as checkpoint kinase 1 inhibitors” (Bioorg Med Chem Lett, 2012).

Key:
[1] = Volume of distribution at steady state in nude mouse; assay type: ADME, organism-based; conditions: in vivo, read-out: Vdss
[2] = AUC in nude mouse; assay type: ADME, organism-based; conditions: plasma
[3] = Lipophilicity, Log D of the compound; assay type: physicochemical; conditions: octanol/water
[4] = Clearance in nude mouse; assay type: ADME, organism-based; conditions: in vivo
[5] = Half life in nude mouse; assay type: ADME, organism-based; conditions: in vivo

Vd [1]: 3.4 L/kg | AUC [2]: 5.47 µM·h | logD [3]: 2.19 | clearance [4]: 33 mL/min/kg | half-life [5]: 1.8 h
Structure (SMILES): O=c1[nH]nc2cc(CO)c3ccc(-c4ccc[nH]4)cc3n12
